{"source": "patent US11426404B2", "about": "“Dosing of KRAS inhibitor for treatment of cancers” (AMGEN INC., priority 2019, dated 2022)", "key": {"[1]": {"test_system": "KRAS p.G12C tumors", "settings": "preclinical KRAS p.G12C models; cited from earlier work"}, "[2]": {"experiment": "clinical", "settings": "human, in vivo, po, 960 mg"}, "[3]": {"test_system": "patients with CRC", "experiment": "Phase 1 study, updated results (cutoff Jan. 8, 2020): adverse events in patients with CRC, N = 42;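 also: values are patient incidence of adverse events, i.e. counts of patients experiencing each event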", "format": "in vivo", "excerpt": "(§1) A subject undergoing a therapy is monitored for adverse events (AE) during the course of the therapy. A treatment related AE is an AE that is related to the treatment drug. A treatment emergent AE is one that a subject develops undergoing the treatment that was not present prior to start of therapy. In some cases, the treatment emergent AE is not or suspected not to be related to the treatment itself AEs are characterized as one of five grades—grade 1 is a mild AE; grade 2 is a moderate AE; grade 3 is a severe AE; grade 4 is a life-threatening or disabling AE; and grade 5 is death related to AE.\n(§2) The grading of AEs is based on the guidelines provided in the CTCAE version 5.0. AEs for DLT assessment: Hematological toxicity: Febrile neutropenia; Neutropenic infection; Grade 4 neutropenia; Grade ≥3 thrombocytopenia for >7 days; Grade 3 thrombocytopenia with grade ≥2 bleeding; Grade 4 thrombocytopenia; Grade 4 Anemia\n(§3) Non-hematological toxicity Grade ≥4, vomiting or diarrhea; Grade 3 diarrhea or grade 3 vomiting lasting more than 3 days despite optimal medical support; Grade ≥3 nausea for 3 days or more despite optimal medical support; Any other grade ≥3 AE\nAll enrolled patients had received prior lines of systemic anticancer therapy."}, "[4]": {"test_system": "KRAS p.G12C tumors", "experiment": "Preclinical KRAS p.G12C tumor models", "format": "in vivo"}, "[5]": {"test_system": "KRAS p.G12C tumors", "experiment": "Treatment of immune-competent mice", "format": "in vivo"}, "[6]": {"test_system": "patients with advanced solid tumors other than NSCLC and CRC", "excerpt": "as §1, §2, §3"}}, "note": "Several values for one entry are separate records, joined by “and”; a condition that tells them apart may be missing. Equal entries are not always repeated.", "data": [{"compound": "C=CC(=O)N1CCN(c2ncnc3c(F)c(-c4c(O)cccc4F)c(Cl)cc23)CC1", "note": "[ARS-1620]", "values": [{"measurement": "in vivo efficacy", "setting": "[1]", "value": "demonstrates in vivo efficacy"}]}, {"compound": "C=CC(=O)N1CCN(c2nc(=O)n(-c3c(C)ccnc3C(C)C)c3nc(-c4c(O)cccc4F)c(F)cc23)[C@@H](C)C1", "note": "[Compound A, 4-((S)-4-acryloyl-2-methylpiperazin-1-yl)-6-fluoro-7-(2-fluoro-6-hydroxyphenyl)-1-(2-isopropyl-4-methylpyridin-3-yl)pyrido[2,3-d]pyrimidin-2(1H)-one]", "values": [{"measurement": "AUC", "setting": "[2]", "value": 65.3, "unit": "µg·h/mL"}, {"measurement": "AUC(0-t)", "setting": "[2]", "value": 140, "unit": "µg·h/mL"}, {"measurement": "tolerability", "setting": "[3]; CRC patients", "value": "well tolerated with mild treatment-related toxicities"}, {"measurement": "anemia, grade 3 treatment-related AE", "setting": "[3]; CRC, 42 patients", "value": 1, "unit": "patient"}, {"measurement": "diarrhea, grade 3 treatment-related AE", "setting": "[3]; CRC, 42 patients", "value": 1, "unit": "patient"}, {"measurement": "AEs leading to treatment discountinuation, Treatment-Emergent AEs (TEAEs)", "setting": "[3]; CRC, N = 42", "value": "2 (4.8) n (%)"}, {"measurement": "AEs leading to treatment discountinuation, Treatment-related TEAEs", "setting": "[3]; CRC, N = 42", "value": "0 (0.0) n (%)"}, {"measurement": "Anemia (treatment-related TEAE of any grade)", "setting": "[3]; CRC, N = 42", "value": "2 (4.8) n (%)"}, {"measurement": "Any grade, Treatment-Emergent AEs (TEAEs)", "setting": "[3]; CRC, N = 42", "value": "38 (90.5) n (%)"}, {"measurement": "Any grade, Treatment-related TEAEs", "setting": "[3]; CRC, N = 42", "value": "20 n (%) and 20 (47.6) n (%)"}, {"measurement": "Blood creatine phosphokinase increase (treatment-related TEAE of any grade)", "setting": "[3]; CRC, N = 42", "value": "2 (4.8) n (%)"}, {"measurement": "Diarrhea (treatment-related TEAE of any grade)", "setting": "[3]; CRC, N = 42", "value": "8 (19.0) n (%)"}, {"measurement": "Dose-limiting toxicities, Treatment-related TEAEs", "setting": "[3]; CRC, N = 42", "value": "0 (0.0) n (%)"}, {"measurement": "Fatal AEs, Treatment-Emergent AEs (TEAEs)", "setting": "[3]; CRC, N = 42", "value": "3 (7.1) n (%)"}, {"measurement": "Fatal AEs, Treatment-related TEAEs", "setting": "[3]; CRC, N = 42", "value": "0 (0.0) n (%)"}, {"measurement": "Fatigue (treatment-related TEAE of any grade)", "setting": "[3]; CRC, N = 42", "value": "4 (9.5) n (%)"}, {"measurement": "Grade ≥2, Treatment-Emergent AEs (TEAEs)", "setting": "[3]; CRC, N = 42", "value": "29 (69.0) n (%)"}, {"measurement": "Grade ≥2, Treatment-related TEAEs", "setting": "[3]; CRC, N = 42", "value": "9 (21.4) n (%)"}, {"measurement": "Grade ≥3, Treatment-Emergent AEs (TEAEs)", "setting": "[3]; CRC, N = 42", "value": "13 (31.0) n (%)"}, {"measurement": "Grade ≥3, Treatment-related TEAEs", "setting": "[3]; CRC, N = 42", "value": "2 (4.8) n (%)"}, {"measurement": "Grade ≥4, Treatment-Emergent AEs (TEAEs)", "setting": "[3]; CRC, N = 42", "value": "3 (7.1) n (%)"}, {"measurement": "Grade ≥4, Treatment-related TEAEs", "setting": "[3]; CRC, N = 42", "value": "0 (0.0) n (%)"}, {"measurement": "Nausea (treatment-related TEAE of any grade)", "setting": "[3]; CRC, N = 42", "value": "2 (4.8) n (%)"}, {"measurement": "Serious AEs, Treatment-Emergent AEs (TEAEs)", "setting": "[3]; CRC, N = 42", "value": "10 (23.8) n (%)"}, {"measurement": "Serious AEs, Treatment-related TEAEs", "setting": "[3]; CRC, N = 42", "value": "0 (0.0) n (%)"}, {"measurement": "Vomiting (treatment-related TEAE of any grade)", "setting": "[3]; CRC, N = 42", "value": "2 (4.8) n (%)"}, {"measurement": "effect in combination with chemotherapy and targeted agents", "setting": "[4]", "value": "significantly improved the anti-tumor efficacy of chemotherapy and targeted agents"}, {"measurement": "outcome in combination with immune checkpoint inhibition", "setting": "[5]", "value": "durable cures"}, {"measurement": "toxicities associated with Compound A", "setting": "[6]; other solid tumors", "value": "mild and manageable"}, {"measurement": "AEs leading to treatment discontinuation, All Treatment-Emergent AEs (TEAEs)", "setting": "[6]; other solid tumors, N = 25", "value": "3 (12.0) n (%)"}, {"measurement": "Any grade, All Treatment-Emergent AEs (TEAEs)", "setting": "[6]; other solid tumors, N = 25", "value": "20 (80.0) n (%)"}, {"measurement": "Any grade, All Treatment-Related TEAEs", "setting": "[6]; other solid tumors, N = 25", "value": "9 (36.0) n (%)"}, {"measurement": "Dose-limiting toxicities, All Treatment-Related TEAEs", "setting": "[6]; other solid tumors, N = 25", "value": "0 (0.0) n (%)"}, {"measurement": "Fatal AEs, All Treatment-Emergent AEs (TEAEs)", "setting": "[6]; other solid tumors, N = 25", "value": "4 (16.0) n (%)"}, {"measurement": "Fatal AEs, All Treatment-Related TEAEs", "setting": "[6]; other solid tumors, N = 25", "value": "0 (0.0) n (%)"}, {"measurement": "Grade ≥2, All Treatment-Emergent AEs (TEAEs)", "setting": "[6]; other solid tumors, N = 25", "value": "17 (68.0) n (%)"}, {"measurement": "Grade ≥2, All Treatment-Related TEAEs", "setting": "[6]; other solid tumors, N = 25", "value": "4 (16.0) n (%)"}, {"measurement": "Grade ≥3, All Treatment-Emergent AEs (TEAEs)", "setting": "[6]; other solid tumors, N = 25", "value": "15 (60.0) n (%)"}, {"measurement": "Grade ≥3, All Treatment-Related TEAEs", "setting": "[6]; other solid tumors, N = 25", "value": "2 (8.0) n (%)"}, {"measurement": "Grade ≥4, All Treatment-Emergent AEs (TEAEs)", "setting": "[6]; other solid tumors, N = 25", "value": "4 (16.0) n (%)"}, {"measurement": "Grade ≥4, All Treatment-Related TEAEs", "setting": "[6]; other solid tumors, N = 25", "value": "0 (0.0) n (%)"}, {"measurement": "Serious AEs, All Treatment-Emergent AEs (TEAEs)", "setting": "[6]; other solid tumors, N = 25", "value": "13 (52.0) n (%)"}, {"measurement": "Serious AEs, All Treatment-Related TEAEs", "setting": "[6]; other solid tumors, N = 25", "value": "1 (4.0) n (%)"}, {"measurement": "diarrhea, grade 3 treatment-related AE", "setting": "[6]; out of 25 patients", "value": 1, "unit": "patients"}, {"measurement": "diarrhea, treatment-related TEAE", "setting": "[6]; out of 25 patients", "value": 2, "unit": "patients"}, {"measurement": "fatigue, treatment-related TEAE", "setting": "[6]; out of 25 patients", "value": 2, "unit": "patients"}, {"measurement": "pneumonia, grade 3 treatment-related AE", "setting": "[6]; out of 25 patients", "value": 1, "unit": "patients"}]}]}
